Test results: patent publication US20160296529A1, “AMINOTRIAZOLOPYRIDINE FOR USE IN THE TREATMENT OF INFLAMMATION, AND PHARMACEUTICAL COMPOSITIONS THEREOF” (priority 2012, published 2016)
Where two headings read alike, the source gives them in different places.

How the values were obtained:
rat CIA model = assay: CIA model 2 (rat collagen induced arthritis, ankle diameter); assay type: in vivo, Female Lewis rats
Source text: Female Lewis rats (n=76) that weighed 165-194 grams (mean approx. 178 g) on arthritis day 0 were obtained from Charles River Laboratories, Inc., Wilmington, Mass., (ref#393739). Animals were identified by a distinct number at the base of the tail delineating group and animal number.
Upon arrival, animals were housed 4/cage in shoe-box polycarbonate cages and acclimated for 8 days prior to being immunized with type II collagen. No concurrent medications were given.
During the acclimation and study periods, animals were housed in a laboratory environment with temperatures ranging 19-25° […]. and relative humidity of 30%-70%. Automatic timers provided 12 h of light and 12 h of dark. Animals were allowed access ad libitum to food and water.
Acclimated female Lewis rats were anesthetized with Isoflurane and receive subcutaneous/intradermal (SC/ID) injections with 300 μL of Freund's Incomplete Adjuvant (Difco, Detroit, Mich.) containing 2 mg/mL bovine type II collagen (Elastin Products, Owensville, Mo.) at the base of the tail and 2 sites on the back on day −9 and on day −3.
Collagen was prepared by making a 4 mg/mL solution in 0.01N Acetic acid. Equal volumes of collagen and Freund's incomplete adjuvant, were emulsified by hand mixing until a bead of this material holds its form when placed in water. Each animal received 300 μL of the mixture on each occasion divided over 3 subcutaneous sites on back.
On study day 1, onset of arthritis occurred and animals were randomized into treatment groups. After randomization, all cages were labelled with protocol number, group number, and animal numbers. Randomization into each group was done after ankle joint swelling was obviously established and there was good evidence of bilateral disease.
Animals with established type II collagen arthritis were treated daily (QD) by the oral (PO) route for 13 days with vehicle (methylcellulose 0.5% (w/v)), or with active compound(s) prepared in methylcellulose, 0.5% (w/v). Oral dosing was initiated on arthritis day 1 and continued daily (QD at 24 h intervals) through day 13. Animals were terminated on arthritis day 14.
The severity of the arthritis was evaluated by measuring the diameter of both ankles on the animals. Caliper measurements of ankles were taken every day beginning on day 0, with a Digitrix II micrometer (Fowler & NSK). Baseline measurements were taken using one ankle with values rounded to one-thousandth of an inch. Measurements were confirmed as clinically normal (0.260-0.264 in) by comparison with historical values for rats based on a range of body weights. Baseline measurements were then applied to both ankles, and these values remain with the animal so long as the ankle was clinically normal with good definition of all the ankle bones and no evidence of inflammation. Animals were terminated on day 14.

hepatocytes of rat = assay: In vitro metabolism study in hepatocytes, rat; assay type: in vitro ADME; conditions: rat hepatocyte suspension, 24 h incubation of 100 μM [14C]-Formula II
Method: (§1) Hepatocyte stability (Concentrations of the compound according to Formula II and its main metabolites (as % of total radioactivity) after 24 h incubation of 100 μM [^14C]-Compound according to Formula II in hepatocyte suspension of different species)

hepatocytes of human = assay: In vitro metabolism study in hepatocytes, human; assay type: in vitro ADME; conditions: human hepatocyte suspension, 24 h incubation of 100 μM [14C]-Formula II
Method: as §1

[1] = Single dose pharmacokinetics in human; assay type: in vivo; conditions: for AUC: plasma, po, human, capsules, read-out: exposure (expressed as AUC)
Method: Serial blood samples were collected over 72 h to determine plasma concentrations of the compounds according to Formula II and Formula I using a validated liquid chromatography-mass spectrometry/mass spectrometry (LC-MS/MS) method with a limit of quantification of 1.00 ng/mL. PK parameters were assessed using a statistical analysis package (WinNonLin (Pharsight, Sunnyvale, Calif.: CA 94086, USA).
Mean plasma concentration-time profiles of the compound according to Formula II and the compound according to Formula I were measured.
In order to show the comparative exposures of the two compounds, the AUC of the compounds according to Formula I and the compound according to Formula II were calculated. The AUC value represents the total exposure of the compound in the species after dosing. These values were then expressed as a ratio of AUC of the compound according to Formula I: AUC of the compound according to Formula II in FIG. 4. From this ratio it can clearly be seen that there was a significant difference in exposure to a compound according to Formula I after administration of a compound according to Formula II in human compared to the exposure seen in animals for therapeutically equivalent doses. Without wanting to be bound by theory, it was believed that this difference was related to the difference in the apparent terminal half-life in the different species.

In vitro metabolic profile of Formula II (as % of total radioactivity) (hepatocytes of rat): at least 80%
In vitro metabolic profile of Formula II (as % of total radioactivity) (hepatocytes of rat; listed as drawing 10): 86%
In vitro metabolic profile of Formula II (as % of total radioactivity) (hepatocytes of human): at least 80%
In vitro metabolic profile of Formula II (as % of total radioactivity) (hepatocytes of human; listed as drawing 10): 88%
half-life ([1]; oral, human plasma, single dose (10-200 mg) of Formula II as capsules, read-out: mean apparent terminal elimination half-life): 300 to 480 min
AUC ([1]; after Formula II 10 mg single dose): 128 ng·h/mL
AUC ([1]; after Formula II 25 mg single dose): 331 ng·h/mL
AUC ([1]; after Formula II 50 mg single dose): 735 ng·h/mL
AUC ([1]; after Formula II 100 mg single dose): 1690 ng·h/mL
AUC ([1]; after Formula II 200 mg single dose): 4500 ng·h/mL
Compound: O=C(Nc1nc2cccc(-c3ccc(CN4CCS(=O)(=O)CC4)cc3)n2n1)C1CC1 [Formula II, Cyclopropanecarboxylic acid {5-[4-(1,1-dioxo-thiomorpholin-4-ylmethyl)-phenyl]-[1,2,4]triazolo[1,5-a]pyridin-2-yl}-amide]
ankle diameter (rat CIA model; group C: Formula II 1 mg/kg PO QD, day 0): 0.2625 inches
ankle diameter (rat CIA model; group C: Formula II 1 mg/kg PO QD, day 1): 0.2716 inches
ankle diameter (rat CIA model; group C: Formula II 1 mg/kg PO QD, day 2): 0.2755 inches
ankle diameter (rat CIA model; group C: Formula II 1 mg/kg PO QD, day 3): 0.2869 inches
ankle diameter (rat CIA model; group C: Formula II 1 mg/kg PO QD, day 4): 0.2990 inches
ankle diameter (rat CIA model; group C: Formula II 1 mg/kg PO QD, day 5): 0.3106 inches
ankle diameter (rat CIA model; group C: Formula II 1 mg/kg PO QD, day 6): 0.3231 inches
ankle diameter (rat CIA model; group C: Formula II 1 mg/kg PO QD, day 7): 0.3296 inches
ankle diameter (rat CIA model; group C: Formula II 1 mg/kg PO QD, day 8): 0.3291 inches
ankle diameter (rat CIA model; group C: Formula II 1 mg/kg PO QD, day 9): 0.3268 inches
ankle diameter (rat CIA model; group C: Formula II 1 mg/kg PO QD, day 10): 0.3270 inches
ankle diameter (rat CIA model; group C: Formula II 1 mg/kg PO QD, day 11): 0.3185 inches
ankle diameter (rat CIA model; group C: Formula II 1 mg/kg PO QD, day 12): 0.3178 inches
ankle diameter (rat CIA model; group C: Formula II 1 mg/kg PO QD, day 13): 0.3185 inches
ankle diameter (rat CIA model; group C: Formula II 1 mg/kg PO QD, day 14): 0.3226 inches
ankle diameter (rat CIA model; group D: Formula II 3 mg/kg PO QD, day 0): 0.2623 inches
ankle diameter (rat CIA model; group D: Formula II 3 mg/kg PO QD, day 1): 0.2718 inches
ankle diameter (rat CIA model; group D: Formula II 3 mg/kg PO QD, day 2): 0.2755 inches
ankle diameter (rat CIA model; group D: Formula II 3 mg/kg PO QD, day 3): 0.2869 inches
ankle diameter (rat CIA model; group D: Formula II 3 mg/kg PO QD, day 4): 0.2957 inches
ankle diameter (rat CIA model; group D: Formula II 3 mg/kg PO QD, day 5): 0.3058 inches
ankle diameter (rat CIA model; group D: Formula II 3 mg/kg PO QD, day 6): 0.3168 inches
ankle diameter (rat CIA model; group D: Formula II 3 mg/kg PO QD, day 7): 0.3205 inches
ankle diameter (rat CIA model; group D: Formula II 3 mg/kg PO QD, day 8): 0.3259 inches
ankle diameter (rat CIA model; group D: Formula II 3 mg/kg PO QD, day 9): 0.3216 inches
ankle diameter (rat CIA model; group D: Formula II 3 mg/kg PO QD, day 10): 0.3197 inches
ankle diameter (rat CIA model; group D: Formula II 3 mg/kg PO QD, day 11): 0.3156 inches
ankle diameter (rat CIA model; group D: Formula II 3 mg/kg PO QD, day 12): 0.3165 inches
ankle diameter (rat CIA model; group D: Formula II 3 mg/kg PO QD, day 13): 0.3175 inches
ankle diameter (rat CIA model; group D: Formula II 3 mg/kg PO QD, day 14): 0.3174 inches
significance to vehicle control (ANOVA) in the CIA second model (rat CIA model; group E: Formula II 10 mg/kg PO QD): mg/kg (*) (((*) = p ≦ 0.05 ANOVA to vehicle control))
ankle diameter (rat CIA model; group E: Formula II 10 mg/kg PO QD, day 0): 0.2626 inches
ankle diameter (rat CIA model; group E: Formula II 10 mg/kg PO QD, day 1): 0.2718 inches
ankle diameter (rat CIA model; group E: Formula II 10 mg/kg PO QD, day 2): 0.2744 inches
ankle diameter (rat CIA model; group E: Formula II 10 mg/kg PO QD, day 3): 0.2808 inches
ankle diameter (rat CIA model; group E: Formula II 10 mg/kg PO QD, day 4): 0.2850 inches
ankle diameter (rat CIA model; group E: Formula II 10 mg/kg PO QD, day 5): 0.2921 inches
ankle diameter (rat CIA model; group E: Formula II 10 mg/kg PO QD, day 6): 0.3000 inches
ankle diameter (rat CIA model; group E: Formula II 10 mg/kg PO QD, day 7): 0.3031 inches
ankle diameter (rat CIA model; group E: Formula II 10 mg/kg PO QD, day 8): 0.3108 inches
ankle diameter (rat CIA model; group E: Formula II 10 mg/kg PO QD, day 9): 0.3119 inches
ankle diameter (rat CIA model; group E: Formula II 10 mg/kg PO QD, day 10): 0.3122 inches
ankle diameter (rat CIA model; group E: Formula II 10 mg/kg PO QD, day 11): 0.3090 inches
ankle diameter (rat CIA model; group E: Formula II 10 mg/kg PO QD, day 12): 0.3070 inches
ankle diameter (rat CIA model; group E: Formula II 10 mg/kg PO QD, day 13): 0.3069 inches
ankle diameter (rat CIA model; group E: Formula II 10 mg/kg PO QD, day 14): 0.3066 inches
significance to vehicle control (ANOVA) in the CIA second model (rat CIA model; group F: Formula II 30 mg/kg PO QD): mg/kg (*) (((*) = p ≦ 0.05 ANOVA to vehicle control))
ankle diameter (rat CIA model; group F: Formula II 30 mg/kg PO QD, day 0): 0.2620 inches
ankle diameter (rat CIA model; group F: Formula II 30 mg/kg PO QD, day 1): 0.2718 inches
ankle diameter (rat CIA model; group F: Formula II 30 mg/kg PO QD, day 2): 0.2679 inches
ankle diameter (rat CIA model; group F: Formula II 30 mg/kg PO QD, day 3): 0.2683 inches
ankle diameter (rat CIA model; group F: Formula II 30 mg/kg PO QD, day 4): 0.2708 inches
ankle diameter (rat CIA model; group F: Formula II 30 mg/kg PO QD, day 5): 0.2698 inches
ankle diameter (rat CIA model; group F: Formula II 30 mg/kg PO QD, day 6): 0.2696 inches
ankle diameter (rat CIA model; group F: Formula II 30 mg/kg PO QD, day 7): 0.2706 inches
ankle diameter (rat CIA model; group F: Formula II 30 mg/kg PO QD, day 8): 0.2741 inches
ankle diameter (rat CIA model; group F: Formula II 30 mg/kg PO QD, day 9): 0.2721 inches
ankle diameter (rat CIA model; group F: Formula II 30 mg/kg PO QD, day 10): 0.2706 inches
ankle diameter (rat CIA model; group F: Formula II 30 mg/kg PO QD, day 11): 0.2711 inches
ankle diameter (rat CIA model; group F: Formula II 30 mg/kg PO QD, day 12): 0.2685 inches
ankle diameter (rat CIA model; group F: Formula II 30 mg/kg PO QD, day 13): 0.2684 inches
ankle diameter (rat CIA model; group F: Formula II 30 mg/kg PO QD, day 14): 0.2679 inches
